The target in test [1] is human GhrR (hGhrR-eYFP, HEK293 cell membranes) (Homo sapiens, UniProt Q92847). Briefly: Competitive radioligand binding assay with [125I-His9]ghrelin at hGhrR membranes.
Procedure: Each concentration was tested in duplicate. The membrane-bound radioligand was trapped on a Filtermat B (PerkinElmer) pre-soaked with 0.1% polyethylenimine in H2O by using a filtermat harvester (PerkinElmer). After drying for 20 min at 55 °C, a Meltilex scintillation sheet (PerkinElmer) was melted onto the filtermat and the samples were counted in a Microbeta scintillation counter (PerkinElmer).
The target of another test is T1, muscarinic M1Rs (Homo sapiens, UniProt P11229).
T1 construct: Eurofins Panlabs (Taiwan), contract screening
T1 sequence (P11229 1-460): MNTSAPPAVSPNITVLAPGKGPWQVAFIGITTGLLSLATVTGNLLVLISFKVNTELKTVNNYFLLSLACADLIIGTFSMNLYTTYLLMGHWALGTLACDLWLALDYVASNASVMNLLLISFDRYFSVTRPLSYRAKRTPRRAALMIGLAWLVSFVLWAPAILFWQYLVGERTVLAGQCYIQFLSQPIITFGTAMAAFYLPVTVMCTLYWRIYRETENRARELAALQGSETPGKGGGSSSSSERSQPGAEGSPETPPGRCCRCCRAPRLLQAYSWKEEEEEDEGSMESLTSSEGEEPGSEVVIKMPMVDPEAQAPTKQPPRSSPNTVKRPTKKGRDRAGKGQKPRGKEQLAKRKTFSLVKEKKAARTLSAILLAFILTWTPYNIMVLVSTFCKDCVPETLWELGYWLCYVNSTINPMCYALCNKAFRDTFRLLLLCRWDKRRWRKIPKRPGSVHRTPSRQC
The test can be described thus: Commercial screening by Eurofins Panlabs. In kind it is binding.

For another test, the target named is T2, muscarinic M2Rs (Homo sapiens, UniProt P08172).
T2 construct: Eurofins Panlabs (Taiwan), contract screening
T2 sequence (P08172 1-466): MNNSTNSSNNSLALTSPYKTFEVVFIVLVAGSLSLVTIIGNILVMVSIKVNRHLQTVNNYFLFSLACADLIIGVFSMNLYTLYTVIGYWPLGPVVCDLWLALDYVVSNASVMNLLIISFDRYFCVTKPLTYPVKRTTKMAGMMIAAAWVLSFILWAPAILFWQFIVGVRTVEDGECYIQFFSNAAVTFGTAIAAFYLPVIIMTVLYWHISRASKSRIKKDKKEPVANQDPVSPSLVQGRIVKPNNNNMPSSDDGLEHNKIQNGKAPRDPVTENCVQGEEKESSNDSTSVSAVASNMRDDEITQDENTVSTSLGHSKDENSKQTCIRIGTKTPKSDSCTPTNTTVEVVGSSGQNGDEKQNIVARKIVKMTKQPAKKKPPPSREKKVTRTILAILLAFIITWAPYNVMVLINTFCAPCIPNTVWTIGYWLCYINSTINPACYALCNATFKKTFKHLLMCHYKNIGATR
The test can be described thus: Commercial screening by Eurofins Panlabs. In kind it is binding.

The results in this text go back to PMC5412352 (International Journal of Molecular Sciences, 2017).

A word on the IC50: it is the point on the concentration scale where inhibition reaches its midpoint. A low value points to higher potency.

“Also recorded” adds a separate entry of the source.

human GhrR (hGhrR-eYFP, HEK293 cell membranes), sequence (Q92847 whole entry): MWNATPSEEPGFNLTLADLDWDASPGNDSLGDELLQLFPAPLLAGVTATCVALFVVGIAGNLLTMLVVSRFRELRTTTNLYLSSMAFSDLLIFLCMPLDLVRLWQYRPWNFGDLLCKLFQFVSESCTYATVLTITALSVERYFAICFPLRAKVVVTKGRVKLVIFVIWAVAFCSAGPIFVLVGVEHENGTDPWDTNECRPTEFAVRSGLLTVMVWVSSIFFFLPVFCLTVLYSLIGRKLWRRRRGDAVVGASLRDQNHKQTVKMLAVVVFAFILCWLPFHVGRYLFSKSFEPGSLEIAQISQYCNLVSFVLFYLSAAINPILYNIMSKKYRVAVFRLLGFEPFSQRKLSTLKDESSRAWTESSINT

Turning to `Cc1nc2ccc(Oc3ccc(Br)cc3F)nc2c(=O)n1C[C@H]1CCCN(C(C)C)C1` [(S)-9, (S)-6-(4-Bromo-2-fluorophenoxy)-3-((1-isopropylpiperidin-3-yl)methyl)-2-methylpyrido[3,2-d]pyrimidin-4(3H)-one], in test [1], the IC50 is 2.19 nM. Also, the “significant response (≥50% inhibition or stimulation)” value on muscarinic M1Rs and on muscarinic M2Rs was “did not show significant responses; also recorded: did not show significant binding” each time.
